Data from US9868733B2, “Azabenzimidazole tetrahydrofuran derivatives” (Merck Sharp & Dohme Corp., priority 2012, dated 2018).

Assays:
[1] = target: recombinant human AMPK complex 7 (containing α2β1γ1) (Homo sapiens, UniProt P54646+Q9Y478); experiment: in vitro AMPK activation assay (AMPKSAMSF); format: biochemical; conditions: for EC50: inflection point reflecting 50% of the maximum activation, human AMPK Complex 7; for Emax: recombinant human AMPK complex 7 (α2β1γ1), 10-point titration expressed as % maximum AMP activation
Method: The recombinant human AMPK complex 1 (containing α1β1γ1) or AMPK complex 7 (containing α2β1γ1) was obtained from baculovirus expression system. Recombinant viruses were generated by cotransfection of AMPK/pBacPak9 clones with Baculogold baculovirus DNA (Pharmingen) in spodoptera frugiperda 21 cells according to the manufacturer's instructions. Each round of virus amplification was performed for 5 days in Grace's medium containing 10% serum. Virus that had been subjected to three rounds of amplification was used for all protein production procedures. To express the AMPK complex, sf21 cells were adapted to serum free medium (SF900 II, Invitrogen) by sequential dilution from serum containing stocks into SF900II medium and maintained in shaker flasks at 90 rpm at 27° C. The recombinant AMPK enzyme complex was produced by triple infection, one recombinant virus for each of the subunits, in sf21 cells under serum free conditions. Cells were infected in log phase, 1×10^6 cells/ml, at a multiplicity of infection of ˜5. Cells were harvested by centrifugation at 10,000×g for 15 minutes after 72 hours of infection with viruses. The insect cell pellet from 2 liters of culture was resuspended in 50 ml lysis buffer (20 mM Tris-HCl, 50 mM NaCl, 50 mM NaF, 30 mM Na PPi, 0.25 M sucrose, 10 mM ZnCl2, 2 mM DTT, 0.4 mg/ml digitonin) and subjected to two cycles of freeze-thaw lysis in a dry-ice ethanol bath. Insoluble material was removed by centrifugation at 10,000×g and the supernatant was fractionated with use of polyethylene glycol (PEG). The protein fraction precipitating between 2.5 and 6% PEG was used for further purification using a Blue-Sepharose step (Zhou et al, J. Clin. Invest. 108, 1167-1174, 2001).
The in vitro AMPK activation assay is performed in a volume of 30 μl in a 384-well plate. Enzyme reactions were assembled in the microtiter plate by adding 15 μl of 2× enzyme in assay buffer (20 mM HEPES, pH 7.3, 5 mM MgCl2, 3 mM DTT, 0.01% Brij 35 and CamK Kinase, to activate AMPK) to wells which contained either DMSO or compound. The reaction was initiated with the addition of 15 μl 2× substrate mixture containing 200 μM ATP, and 3.0 μM fluorescently labeled SAMS (5-FAM-HMRSAMSGLHLVKRR-COOH) in assay buffer. After 45-minute incubation at 25° C., the reaction was stopped by the addition of 70 μl stop buffer (100 mM HEPES, pH 7.3, 40 mM EDTA, 0.015% Brij 35). Phosphorylated 5-FAM SAMS product is assessed using a Caliper EZ Reader LabChip microfluidics reader. Product conversion is determined by calculating the peak heights of the substrate and product and reporting the product/(product+substrate) peak ratio. The 10-point titration data were expressed as % maximum AMP activation. The results were plotted using 4 parameter fit and the inflection point reflecting 50% of the maximum activation was reported as the EC50.

ob/ob and db/db mice = conditions: following 8 weeks of administration; cited from earlier work

recombinant human AMPK complex 7 (containing α2β1γ1), sequence (P54646 whole entry): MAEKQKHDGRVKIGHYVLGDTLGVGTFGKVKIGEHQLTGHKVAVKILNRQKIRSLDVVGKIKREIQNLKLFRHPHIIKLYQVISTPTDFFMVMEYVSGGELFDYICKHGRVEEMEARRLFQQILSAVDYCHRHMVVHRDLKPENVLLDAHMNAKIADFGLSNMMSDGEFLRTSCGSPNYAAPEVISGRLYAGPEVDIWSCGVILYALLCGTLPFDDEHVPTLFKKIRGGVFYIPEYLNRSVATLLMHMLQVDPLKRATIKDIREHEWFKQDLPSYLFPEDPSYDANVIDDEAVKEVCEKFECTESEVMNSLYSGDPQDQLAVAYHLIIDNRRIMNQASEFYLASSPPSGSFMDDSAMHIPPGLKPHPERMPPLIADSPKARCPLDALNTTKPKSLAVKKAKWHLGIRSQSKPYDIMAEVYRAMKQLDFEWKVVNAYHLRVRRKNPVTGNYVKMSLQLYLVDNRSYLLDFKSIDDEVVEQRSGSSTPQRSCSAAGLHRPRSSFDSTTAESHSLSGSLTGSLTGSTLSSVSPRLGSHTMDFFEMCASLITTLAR
recombinant human AMPK complex 7 (containing α2β1γ1), sequence (Q9Y478 whole entry): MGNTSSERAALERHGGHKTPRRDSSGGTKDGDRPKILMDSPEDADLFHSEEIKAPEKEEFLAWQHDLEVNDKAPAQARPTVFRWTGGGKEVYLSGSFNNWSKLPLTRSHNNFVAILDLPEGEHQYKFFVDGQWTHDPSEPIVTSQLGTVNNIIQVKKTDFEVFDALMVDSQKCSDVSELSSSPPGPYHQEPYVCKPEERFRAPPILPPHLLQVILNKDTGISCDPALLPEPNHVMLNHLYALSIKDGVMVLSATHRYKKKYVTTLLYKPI
recombinant human AMPK complex 7 (containing α2β1γ1), sequence (P54619 whole entry partner): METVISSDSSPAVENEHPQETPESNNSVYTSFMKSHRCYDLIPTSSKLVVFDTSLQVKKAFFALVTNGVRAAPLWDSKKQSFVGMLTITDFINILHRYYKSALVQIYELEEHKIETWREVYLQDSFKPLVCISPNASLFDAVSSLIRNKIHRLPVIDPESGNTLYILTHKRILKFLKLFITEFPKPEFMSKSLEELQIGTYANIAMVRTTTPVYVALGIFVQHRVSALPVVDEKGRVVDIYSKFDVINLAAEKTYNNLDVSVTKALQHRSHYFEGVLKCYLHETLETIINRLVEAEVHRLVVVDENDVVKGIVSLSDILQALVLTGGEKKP

Row | SMILES | EC50 [1] [nM] | Emax [1] [%] | blood glucose reduction (ob/ob and db/db mice) [%]
1 | OC[C@H]1OC[C@@H](Oc2nc3nc(-c4ccc(-c5ccccc5F)cc4)c(Cl)cc3[nH]2)[C@@H]1O [Example 18] | 32 | 294 | –
2 | OC[C@H]1OC[C@@H](Oc2nc3nc(-c4ccc(-c5ccc(-n6nccn6)cc5)cc4)c(Cl)cc3[nH]2)[C@@H]1O [Example 4, (2R,3R,4R)-4-[[6-chloro-5-[4-[4-(triazol-2-yl)phenyl]phenyl]-1H-imidazo[4,5-b]pyridin-2-yl]oxy]2-(hydroxymethyl)tetrahydrofuran-3-ol] | 20 | 206 | –
3 | OC[C@H]1OC[C@@H](Oc2nc3nc(-c4ccc(-c5cccc(F)c5)cc4)c(Cl)cc3[nH]2)[C@@H]1O [Example 19] | 126 | 231 | –
4 | OC[C@H]1OC[C@@H](Oc2nc3nc(-c4ccc(Br)cc4)c(Cl)cc3[nH]2)[C@@H]1O [Example 10, (2R,3R,4R)-4-[[5-(4-bromophenyl)-6-chloro-1H-imidazo[4,5-b]pyridin-2-yl]oxy]-2-(hydroxymethyl)tetrahydrofuran-3-ol] | 3650 | 209 | –
5 | OC[C@H]1OC[C@@H](Oc2nc3nc(-c4ccc(-c5ccc(F)cc5F)cc4)c(Cl)cc3[nH]2)[C@@H]1O [Example 21] | 85 | 307 | –
6 | C[C@]1(O)[C@@H](CO)OC[C@H]1Oc1nc2nc(-c3ccc(-c4ccccc4)cc3)c(Cl)cc2[nH]1 [Example 14, (2R,3S,4R)-4-[[6-chloro-5-(4-phenylphenyl)-1H-imidazo[4,5-b]pyridin-2-yl]oxy]-2-(hydroxymethyl)-3-methyl-tetrahydrofuran-3-ol] | 289 | 203 | –
7 | NC(=O)c1ncn([C@@H]2O[C@H](CO)[C@@H](O)[C@H]2O)c1N [AICAR] | – | – | 35
8 | OC[C@H]1OC[C@@H](Oc2nc3nc(-c4ccc(-c5ccc(F)cc5)cc4)c(Cl)cc3[nH]2)[C@@H]1O [Example 23] | 38 | 231 | –
9 | O=C(O)[C@H]1OC[C@@H](Oc2nc3nc(-c4ccc(-c5ccccc5)cc4)c(Cl)cc3[nH]2)[C@@H]1O [Example 12, (2S,3S,4R)-4-[[6-chloro-5-(4-phenylphenyl)-1H-imidazo[4,5-b]pyridin-2-yl]oxy]-3-hydroxy-tetrahydrofuran-2-carboxylic acid] | 332 | 313 | –

Further compounds by falling EC50 [1], results first:

Row | EC50 [1] [nM] | Emax [1] [%] | SMILES | blood glucose reduction (ob/ob and db/db mice) [%]
10 | 16 | 188 | OC[C@H]1OC[C@@H](Oc2nc3nc(-c4ccc(-c5ccc(-n6cccn6)nc5)cc4)c(Cl)cc3[nH]2)[C@@H]1O [Example 1, (2R,3R,4R)-4-[[6-chloro-5-[4-(6-pyrazol-1-yl-3-pyridyl)phenyl]-1H-imidazo[4,5-b]pyridin-2-yl]oxy]-2-(hydroxymethyl)tetrahydrofuran-3-ol] | –
11 | 13 | 338 | OC[C@H]1OC[C@@H](Oc2nc3nc(-c4ccc(-c5ccccc5)cc4)c(Cl)cc3[nH]2)[C@@H]1O [Example 3] | –
12 | 11 | 294 | CC(C)(F)Cn1cc2c(n1)CN(c1ccc(-c3nc4nc(O[C@@H]5CO[C@H](CO)[C@H]5O)[nH]c4cc3Cl)cc1)C2 [Example 9, (2R,3R,4R)-4-[[6-chloro-5-[4-[2-(2-fluoro-2-methyl-propyl)-4,6-dihydropyrrolo[3,4-c]pyrazol-5-yl]phenyl]-1H-imidazo[4,5-b]pyridin-2-yl]oxy]-2-(hydroxymethyl)tetrahydrofuran-3-ol] | –
13 | 9 | 332 | CC(C)(O)Cn1cc2c(n1)CN(c1ccc(-c3nc4nc(O[C@@H]5CO[C@H](CO)[C@H]5O)[nH]c4cc3Cl)cc1)C2 [Example 8, (2R,3R,4R)-4-[[6-chloro-5-[4-[2-(2-hydroxy-2-methyl-propy)-4,6-dihydropyrrolo[3,4-c]pyrazol-5-yl]phenyl]-1H-imidazo[4,5-b]pyridin-2-yl]oxy]-2-(hydroxymethyl)-tetrahydrofuran-3-ol; 2,2,2-trifluoroacetic acid] | –
14 | 8 | 242 | N#CCCn1nnnc1-c1ccc(-c2ccc(-c3nc4nc(O[C@@H]5CO[C@H](CO)[C@H]5O)[nH]c4cc3Cl)cc2)cc1 [Example 20] | –
15 | 5 | 268 | CC(C)(O)Cc1cnn(-c2ccc(-c3ccc(-c4nc5nc(O[C@@H]6CO[C@H](CO)[C@H]6O)[nH]c5cc4Cl)cc3)cc2)c1 [Example 6] | –
16 | 5 | 252 | OC[C@H]1OC[C@@H](Oc2nc3nc(-c4ccc(-c5ccc(N6CCOCC6)cc5)cc4)c(Cl)cc3[nH]2)[C@@H]1O [Example 22] | –
17 | 4 | 315 | OC[C@H]1OC[C@@H](Oc2nc3nc(-c4ccc(-c5ccc(-n6cccn6)cc5)cc4)c(Cl)cc3[nH]2)[C@@H]1O [Example 2] | –
18 | 3 | 282 | OC[C@H]1OC[C@@H](Oc2nc3nc(-c4ccc(-c5ccc(-n6cnnn6)cc5)cc4)c(Cl)cc3[nH]2)[C@@H]1O [Example 7, (2R,3R,4R)-4-[[6-chloro-5-[4-[4-(tetrazol-1-yl)phenyl]phenyl]-1H-imidazo[4,5-b]pyridin-2-yl]oxy]-2-(hydroxymethyl)tetrahydrofuran-3-ol] | –
19 | 2 | 261 | OC[C@H]1OC[C@@H](Oc2nc3nc(-c4ccc(-c5ccc(-n6cncn6)cc5)cc4)c(Cl)cc3[nH]2)[C@@H]1O [Example 5, (2R,3R,4R)-4-[[6-chloro-5-[4-[4-(1,2,4-triazol-1-yl)phenyl]phenyl]-1H-imidazo[4,5-b]pyridin-2-yl]oxy]-2-(hydroxymethyl)tetrahydrofuran-3-ol] | –
